These results are taken from patent US4250178A, “Amides derived from carboxyl-5 pyrimidines” (Delalande S.A., priority 1978, dated 1981).

SMILES strings stand for the structures. Structures can show the parent of a compound that is named as a salt.

Data set [1] in a line: acute toxicity in mice, intraperitoneal (Miller and Tainter). To be noted: mouse, in vivo, ip, read-out: Acute toxicity (mice) LD 50. The source says: The acute toxicity was studied in mice intraperitoneally and the lethal doses estimated according to the method described by Miller and Tainter in Proc. Soc. Exper.
The subject of data set [2] is apomorphine straightening. In words: test of antagonism to apomorphine straightening in mice, intraperitoneal (Gouret). Conditions: Mus musculus, ip, read-out: Apomorphine straightening ED 50. It is filed as in vivo.

With `COc1nc(N)ncc1C(=O)NCC1CCCN1Cc1ccc(F)cc1` (centres unmarked) [77.1047], the LD50 in data set [1] worked out at 130 mg/kg. In data set [2], the ED50 is 4.5 mg/kg.

Take `CCN1CCCC1CNC(=O)c1cnc(N(C)C)nc1OC` (centres unmarked) [77.1057]: the LD50 in data set [1] was found to be 130 mg/kg. Further, the ED50 in data set [2] amounted to 1.3 mg/kg.

On to `CCN(CC)CCNC(=O)c1cnc(N(C)C)nc1OC` [77.1075], for which, in data set [1], the LD50 is 200 mg/kg. The ED50 in data set [2] came to 16 mg/kg.

Turning to `CCN1CCCC1CNC(=O)c1cnc(OC)nc1OC` (centres unmarked) [77.1243], in data set [1], the LD50 turned out to be 150 mg/kg. Further, the ED50 in data set [2] was found to be 15 mg/kg.

As to `COc1ncc(C(=O)NC2CCN(Cc3ccccc3)CC2)c(OC)n1` [77.1244], the LD50 in data set [1] turned out to be 180 mg/kg. Also, the ED50 in data set [2] stood at 10 mg/kg.

Regarding `CCCN1CCCC1CNC(=O)c1cnc(N)nc1OC` (centres unmarked) [compound 771120], in data set [1], the LD50 is 180 mg/kg. Also, the ED50 in data set [2] was 3.4 mg/kg.

As to `CCN1CCCC1CNC(=O)c1cnc(NC)nc1OC` (centres unmarked) [compound 771226], the LD50 in data set [1] amounted to 110 mg/kg. In data set [2], the ED50 is 1.4 mg/kg.

On to `CNc1ncc(C(=O)NC2CCN(Cc3ccccc3)CC2)c(OC)n1` [compound 771261], for which, in data set [1], the LD50 amounted to 70 mg/kg. In addition, in data set [2], the ED50 came out at 2.4 mg/kg.

For the molecule `COc1nc(N)ncc1C(=O)NC1CCN(Cc2ccc(F)cc2)C1` (centres unmarked) [compound 771274], in data set [1], the LD50 is 100 mg/kg. Besides, in data set [2], the ED50 was 1.4 mg/kg.

Take `COc1nc(N)ncc1C(=O)NCC1CCCN1C` (centres unmarked) [compound 780079]: the LD50 in data set [1] came out at 225 mg/kg. Moreover, in data set [2], the ED50 was 11 mg/kg.

Turning to `COc1nc(C)ncc1C(=O)NCc1cccn1C` [compound 780204], in data set [1], the LD50 was determined as 400 mg/kg. Moreover, the ED50 in data set [2] came out at 50 mg/kg.

As to `COc1nc(C)ncc1C(=O)NC1CCN(Cc2ccccc2)C1` (centres unmarked) [compound 780326], in data set [1], the LD50 is 130 mg/kg. The ED50 in data set [2] turned out to be 5.8 mg/kg.

As to `CCN(CCNC(=O)c1cnc(C)nc1OC)Cc1ccccc1` [compound 780327], the LD50 in data set [1] came out at 170 mg/kg. For the same molecule, the ED50 in data set [2] is 7 mg/kg.

Consider `CCOc1nc(C)ncc1C(=O)NCC1CCCN1CC` (centres unmarked) [compound 780336], for which the LD50 in data set [1] worked out at 170 mg/kg. The ED50 in data set [2] was found to be 1.8 mg/kg.

Take `CCCOc1nc(C)ncc1C(=O)NCC1CCCN1CC` (centres unmarked) [compound 780432]: the LD50 in data set [1] came to 170 mg/kg. Moreover, the ED50 in data set [2] worked out at 7.5 mg/kg.

`CCCCN1CCCC1CNC(=O)c1cnc(C)nc1OC` (centres unmarked) [compound 780457]: in data set [1], the LD50 was determined as 160 mg/kg. Moreover, the ED50 in data set [2] was determined as 17 mg/kg.

With `COc1nc(C)ncc1C(=O)NCC1CCCN1Cc1ccccc1` (centres unmarked) [compound 780458], the LD50 in data set [1] came out at 140 mg/kg. Moreover, the ED50 in data set [2] stood at 13 mg/kg.

For the molecule `COc1nc(C)ncc1C(=O)NCC1CCCN1Cc1ccc(F)cc1` (centres unmarked) [compound 780505], the LD50 in data set [1] was determined as 155 mg/kg. For the same molecule, the ED50 in data set [2] was found to be 15 mg/kg.

With `COc1ccccc1N1CCN(CCNC(=O)c2cnc(C)nc2OC)CC1` [compound 780521], the LD50 in data set [1] was 140 mg/kg. Moreover, the ED50 in data set [2] is 5.25 mg/kg.

For `COc1nc(C)ncc1C(=O)NCCN1CCN(c2ccccc2)CC1` [compound 780522], in data set [1], the LD50 was determined as 130 mg/kg. Also, the ED50 in data set [2] stood at 10 mg/kg.

Consider `CCCN1CCCC1CNC(=O)c1cnc(C)nc1OC` (centres unmarked) [compound 780552], for which the LD50 in data set [1] is 140 mg/kg. Further, in data set [2], the ED50 is 12.5 mg/kg.

Turning to `COc1nc(C)ncc1C(=O)NC1CCN(Cc2ccc(F)cc2)C1` (centres unmarked) [compound 780560], the LD50 in data set [1] amounted to 100 mg/kg. Also, in data set [2], the ED50 came to 3 mg/kg.

For `CCN1CCCC1CNC(=O)c1cnc(C)nc1OC(C)C` (centres unmarked) [compound 780561], the LD50 in data set [1] amounted to 170 mg/kg. Moreover, in data set [2], the ED50 is 3.3 mg/kg.

With `CCN1CCC[C@H]1CNC(=O)c1cnc(C)nc1OC` [compound 780648], the LD50 in data set [1] was determined as 200 mg/kg. Moreover, in data set [2], the ED50 turned out to be 3.2 mg/kg.

For the molecule `CCOc1nc(C)ncc1C(=O)NCCN(CC)Cc1ccccc1` [compound 780656], in data set [1], the LD50 is 140 mg/kg. Further, the ED50 in data set [2] was 6 mg/kg.

For `COc1nc(C)ncc1C(=O)NCC1CCCN1C` (centres unmarked) [compound 780680], in data set [1], the LD50 stood at 275 mg/kg. In data set [2], the ED50 stood at 7.2 mg/kg.

Consider `COc1nc(C)ncc1C(=O)NCCN1CCN(c2ccc(F)cc2)CC1` [compound 780686], for which the LD50 in data set [1] stood at 115 mg/kg. Also, in data set [2], the ED50 was determined as 10 mg/kg.

Regarding `CCCc1ncc(C(=O)NCC2CCCN2CC)c(OC)n1` (centres unmarked) [compound 780700], the LD50 in data set [1] worked out at 200 mg/kg. The ED50 in data set [2] was 17 mg/kg.

For `C=CCN1CCCC1CNC(=O)c1cnc(C)nc1OC` (centres unmarked) [compound 780784], the LD50 in data set [1] came out at 280 mg/kg. The ED50 in data set [2] turned out to be 5.5 mg/kg.

Take `COc1nc(C)ncc1C(=O)NCC1CCCN1CC1CCCCC1` (centres unmarked) [compound 780836]: in data set [1], the LD50 was 140 mg/kg. Also, in data set [2], the ED50 came out at 9 mg/kg.

For the molecule `CCN(CCNC(=O)c1cnc(C)nc1OC)CC1CCCCC1` [compound 780866], the LD50 in data set [1] came to 120 mg/kg. Moreover, the ED50 in data set [2] amounted to 4.7 mg/kg.

As for `CCN(CCNC(=O)c1cnc(C)nc1OC)Cc1ccc(F)cc1` [compound 780886], the LD50 in data set [1] was 140 mg/kg. Moreover, the ED50 in data set [2] was 10 mg/kg.

As for `CCOc1nc(C)ncc1C(=O)NCCN(CC)Cc1ccc(F)cc1` [compound 780887], in data set [1], the LD50 worked out at 140 mg/kg. Further, the ED50 in data set [2] is 1 mg/kg.

Regarding `CCOc1nc(C)ncc1C(=O)NC[C@@H]1CCCN1CC` [compound 780905], the LD50 in data set [1] was determined as 175 mg/kg. Further, in data set [2], the ED50 was 0.88 mg/kg.

`CCN1CCCC1CNC(=O)c1cnc(C(C)C)nc1OC` (centres unmarked) [compound 780907]: the LD50 in data set [1] was determined as 120 mg/kg. Also, the ED50 in data set [2] was found to be 10 mg/kg.

As to `CCOc1nc(C)ncc1C(=O)NCC1CCCN1C` (centres unmarked) [compound 781017], the LD50 in data set [1] was 150 mg/kg. The ED50 in data set [2] turned out to be 4.1 mg/kg.

Regarding `CCOc1nc(CC)ncc1C(=O)NCC1CCCN1C` (centres unmarked) [compound 781021, 4-ethoxy 2-ethyl 5-(1-methylpyrrolidin-2-yl)methylamino carbonyl pyrimidine, fumarate], in data set [1], the LD50 was 115 mg/kg. Besides, the ED50 in data set [2] was 10.5 mg/kg.

Turning to `CCOc1nc(CC)ncc1C(=O)NCC1CCCN1CC` (centres unmarked) [compound 781022], the LD50 in data set [1] worked out at 140 mg/kg. Moreover, the ED50 in data set [2] is 3 mg/kg.

Consider `CCOc1nc(N(C)C)ncc1C(=O)NC[C@@H]1CCCN1CC` [compound 781170], for which the LD50 in data set [1] is 120 mg/kg. Besides, in data set [2], the ED50 amounted to 2.3 mg/kg.

Turning to `CCN1CCC[C@H]1CNC(=O)c1cnc(N(C)C)nc1OC` [compound 781171], the LD50 in data set [1] was found to be 100 mg/kg. In data set [2], the ED50 worked out at 3 mg/kg.
